Data on one compound can be found in patent US20060199819A1, “Inhibition of cyclooxygenase-2 activity” (Celgene Corporation, priority 2000, published 2006).

Experiment [1] deals with cyclooxygenase-2. The experiment can be described thus: LPS-mediated induction of cyclooxygenase-2 in macrophages (RAW 264.7 cells). Type of experiment: cell-based. The conditions noted are these: macrophages in RAW 264.7 cells; as little as 50 μM. The source says:
(§1) Cyclooxygenase-2, the rate-limiting enzyme in prostaglandin biosynthesis, is expressed in tumor associated macrophages. Because prostaglandins, notable PGE2, are important mediators of inflammatory response and angiogenesis, inhibition of their biosynthesis can be used to combat these effects. Inhibition of the cyclooxygenase-2 protein by a test compound can be conveniently observed in cells in which induction of the protein has been induced by lipopolysaccharide (LPS). Thus it is known that LPS enhances cyclooxygenase-2 transcription and this effect thus can be used as convenient model for evaluating cyclooxygenase-2 inhibition.
(§2) In one experiment, LPS-mediated induction of cyclooxygenase-2, as well as PGE2 biosynthesis, in macrophages in RAW 264.7 cells was blocked by as little as 50 μM of 3-phthalimido-2,6-dioxopiperidine. It appears, however, that LPS-enhanced cyclooxy-genase-2 transcription is not itself effected by the amide or imide. That is, the amide or imide has no effect on the induction of cyclooxygenase-2 by LPS. On the other hand, the amide or imide enhances the degradation of cyclooxygenase-2 messenger RNA. Consequently while not wishing to be bound by any theory, it appears the inhibitory effect of the amide or imide operates on the activity of cyclooxygenase-2 by some post-transcriptional mechanism.

The subject of experiment [2] is PGE2 biosynthesis. As to the kind of experiment: LPS-mediated PGE2 biosynthesis in macrophages (RAW 264.7 cells). To be noted: macrophages in RAW 264.7 cells, as little as 50 μM. Type of experiment: cell-based.
From the text: as §1, §2

Each structure is given as a SMILES string.

For the compound `O=C1CCC(N2C(=O)c3ccccc3C2=O)C(=O)N1` (centres unmarked) [3-phthalimido-2,6-dioxopiperidine], the “LPS-mediated induction of cyclooxygenase-2” value in experiment [1] is “blocked”. In addition, the PGE2 biosynthesis result in experiment [2] is on record as “blocked”.
